Assay results as given in patent US20170197980A1, “N-(4-PHENYL)-N'-(3-FLUOROPHENYL)UREA DOCUSATE” (AbbVie Inc., priority 2014, published 2017).
Converted amounts (≈) assume the structure as drawn. “Also recorded” adds a separate entry of the source.

Experiments:
Format in all cases: physicochemical
[1] = Solubility in organic solvents, potency measurement by HPLC
Description: In a glass vial, N-(4-{4-amino-7-[1-(2-hydroxyethyl)-1H-pyrazol-4-yl]thieno[3,2-c]pyridin-3-yl}phenyl)-N′-(3-fluorophenyl)urea free base (501 mg, 1.02 mmol) was slurried in 20 ml of THF using a magnetic stir bar. The free base was converted to the HCl salt in-situ by addition of 5.0 ml of aqueous 0.207 N HCl. Docusate sodium (465 mg, 1.05 mmol) was added and the mixture was stirred until all solids dissolved. Solvent was removed by rotoevaporation. Acetone, 15 ml, was added to the flask with mixing until most of the solid has dissolved, resulting in a suspension of NaCl particles. The sample was then filtered through a 0.45 µm syringe filter (to remove the NaCl particles) followed by rotoevaporation to remove acetone. The sample was placed on a vacuum line to dry for 2 hours. The above step was repeated with 15 ml acetone and filtration through a 0.22 µm filter. After removing the acetone by rotoevaporation, the sample was dried under vacuum overnight. The sample appears to be amorphous to the naked eye. […] Solubilities were determined by potency measurements using high-performance liquid chromatography (HPLC).

[2] = Solubility in SEDDs (lipid) vehicle, saturated solution
Description: A saturated solution of the docusate salt in the SEDDs vehicle and a saturated solution of the tosylate salt in the SEDDs vehicle were prepared. The SEDDs vehicle was 15 wt % Capmul® MCM C10, 50 wt % Polysorbate 80, and 35 wt % Miglyol 812.

[3] = Stability, droplet size (DLS) and appearance of the SEDD emulsion after 1:9 dilution in water
Description: The docusate:SEDD concentrate was diluted in water at a 1:9 ratio, resulting in an emulsion at a concentration of 2.3 mg/mL. […] The emulsion was stable at native pH 4 for more than 2 weeks at room temperature, with no significant change in particle size analysis by dynamic light scattering (DLS).
The tosylate:SEDD concentrate was diluted in water at a 1:9 ratio, resulting in an emulsion at a concentration of 2.3 mg/mL.

[4] = Microcentrifuge dissolution in simulated gastric and intestinal media (GB/IB transfer test); details: for dissolution in simulated gastric media: 0.01N HCl, pH 2.0, 1000 μg/mL; for dissolution in simulated intestinal media (IB): 0.5 wt % SIF powder in PBS, pH 6.5, 500 μg/mL
Description: Microcentrifuge dissolution of salts in simulated gastric and intestinal media
Dissolution of tosylate and docusate salts in simulated GB/IB transfer dissolution test was measured and compared to free base. The simulated gastric media was 0.01N HCl, pH 2.0 (concentration 1000 μg/mL), and the simulated intestinal media was 0.5 wt % SIF powder in PBS, pH 6.5 (500 μg/mL).
Once the pH is raised to intestinal pH, the drug converts back to a free base that precipitates.

Solubility in water = details: pH 7.4
[5] = 15 wt % Capmul MCM C10, 50 wt % Polysorbate 80, 35 wt % Miglyol 812

| Compound | solubility in tetrahydrofuran (THF) ([1]; THF) | solubility in acetone ([1]; acetone) | solubility in dichloromethane ([1]; dichloromethane) | solubility in ethanol ([1]; ethanol) | solubility in the SEDD vehicle [2, 5] | solubility in lipid vehicles (in words) ([2]; lipid vehicles) | stability in emulsions (in words) [3] | dissolution in simulated gastric media [4] | dissolution in simulated intestinal media (IB) [4] | solubility in water (Solubility in water) | solubility ([1]; organic solvent or mixture) | solubility ([2]; SEDDs vehicle, oil or lipid, thermodynamic from solid, 15 wt % Capmul MCM C10, 50 wt % Polysorbate 80, 35 wt % Miglyol 812, read-out: solubility in the SEDD vehicle) |
| --- | --- | --- | --- | --- | --- | --- | --- | --- | --- | --- | --- | --- |
| CCCCC(CC)COC(=O)CC(C(=O)OCC(CC)CCCC)S(=O)(=O)O.Nc1ncc(-c2cnn(CCO)c2)c2scc(-c3ccc(NC(=O)Nc4cccc(F)c4)cc3)c12 [docusate salt, N-(4-{4-amino-7-[1-(2-hydroxyethyl)-1H-pyrazol-4-yl]thieno[3,2-c]pyridin-3-yl}phenyl)-N′-(3-fluorophenyl)urea docusate salt] | greater than 45 mg/ml | > 47 mg/mL | > 75 mg/mL | > 51 mg/mL | 23 mg/mL | high solubility in lipid vehicles | remain stable in emulsions over a period of several days | does not dissolve in acidic pH | significantly higher solubility profile during the first 90 minutes in IB than either free base or the tosylate salt; also recorded: appreciable solubility in IB solution | – | – | – |
| Nc1ncc(-c2cnn(CCO)c2)c2scc(-c3ccc(NC(=O)Nc4cccc(F)c4)cc3)c12 [free base, N-(4-{4-amino-7-[1-(2-hydroxyethyl)-1H-pyrazol-4-yl]thieno[3,2-c]pyridin-3-yl}phenyl)-N′-(3-fluorophenyl)urea free base] | – | – | – | – | 2.7 mg/mL (≈ 5.53 mM) | – | – | significant solubility at the lower pH | precipitates | less than 30 ng/ml | – | – |
| Cc1ccc(S(=O)(=O)O)cc1.Nc1ncc(-c2cnn(CCO)c2)c2scc(-c3ccc(NC(=O)Nc4cccc(F)c4)cc3)c12 [tosylate salt, N-(4-{4-amino-7-[1-(2-hydroxyethyl)-1H-pyrazol-4-yl]thieno[3,2-c]pyridin-3-yl}phenyl)-N′-(3-fluorophenyl)urea tosylate salt] | – | – | – | – | – | – | – | significant solubility at the lower pH | precipitates | – | > 25 mg/mL | 22 mg/mL |
